Experimental data reported in ChEMBL document CHEMBL5303573, “Mapping human microbiome drug metabolism by gut bacteria and their genes” (Nature, 2019).

experiment: The drug is tested on Blautia luti strain: DSM14534 for biotransformation. The drug concentrations were measured before and after a 12-h incubation by liquid-chromatography-coupled mass spectrometry (LC–MS); assay type: ADME; set-up: dose 2 uM, timepoint 0 vs 12 hours; conditions: 2 µM

SMILES | Bacterial Biotransformation
N=C(N)NC(=O)Cc1c(Cl)cccc1Cl [GUANFACINE] | Compound NOT metabolized
CN1CC(=O)N2[C@H](c3ccc4c(c3)OCO4)c3[nH]c4ccccc4c3C[C@@H]2C1=O | Compound NOT metabolized
CNS(=O)(=O)Cc1ccc2[nH]cc(CCN(C)C)c2c1.O=C(O)CCC(=O)O [SUMATRIPTAN SUCCINATE] | Compound NOT metabolized
O=C(CCCN1CCC2(CC1)C(=O)NCN2c1ccccc1)c1ccc(F)cc1 [SPIPERONE] | Compound NOT metabolized

experiment: The drug is tested on Escherichia coli strain: BW25113 for biotransformation. The drug concentrations were measured before and after a 12-h incubation by liquid-chromatography-coupled mass spectrometry (LC–MS); conditions: 2 µM

SMILES | Bacterial Biotransformation
N=C(N)NC(=O)Cc1c(Cl)cccc1Cl [GUANFACINE] | Compound NOT metabolized
CNS(=O)(=O)Cc1ccc2[nH]cc(CCN(C)C)c2c1.O=C(O)CCC(=O)O [SUMATRIPTAN SUCCINATE] | Compound NOT metabolized
O=C(CCCN1CCC2(CC1)C(=O)NCN2c1ccccc1)c1ccc(F)cc1 [SPIPERONE] | Compound NOT metabolized

conditions: parabacteroides distasonis, 12 h, 2 µM
Description: The drug is tested on Parabacteroides distasonis strain: ATCC8503 for biotransformation. The drug concentrations were measured before and after a 12-h incubation by liquid-chromatography-coupled mass spectrometry (LC–MS)

SMILES | Bacterial Biotransformation
N=C(N)NC(=O)Cc1c(Cl)cccc1Cl [GUANFACINE] | Compound NOT metabolized
CN1CC(=O)N2[C@H](c3ccc4c(c3)OCO4)c3[nH]c4ccccc4c3C[C@@H]2C1=O | Compound NOT metabolized
CNS(=O)(=O)Cc1ccc2[nH]cc(CCN(C)C)c2c1.O=C(O)CCC(=O)O [SUMATRIPTAN SUCCINATE] | Compound NOT metabolized

conditions: bacteroides fragilis, 12 h, 2 µM
Description: The drug is tested on Bacteroides fragilis strain: NCTC 9343 for biotransformation. The drug concentrations were measured before and after a 12-h incubation by liquid-chromatography-coupled mass spectrometry (LC–MS)

SMILES | Bacterial Biotransformation
N=C(N)NC(=O)Cc1c(Cl)cccc1Cl [GUANFACINE] | Compound NOT metabolized
CN1CC(=O)N2[C@H](c3ccc4c(c3)OCO4)c3[nH]c4ccccc4c3C[C@@H]2C1=O | Compound NOT metabolized
CNS(=O)(=O)Cc1ccc2[nH]cc(CCN(C)C)c2c1.O=C(O)CCC(=O)O [SUMATRIPTAN SUCCINATE] | Compound NOT metabolized
O=C(CCCN1CCC2(CC1)C(=O)NCN2c1ccccc1)c1ccc(F)cc1 [SPIPERONE] | Compound NOT metabolized

experiment: The drug is tested on Bacteroides fragilis strain: ATCC43859 for biotransformation. The drug concentrations were measured before and after a 12-h incubation by liquid-chromatography-coupled mass spectrometry (LC–MS); conditions: 2 µM

SMILES | Bacterial Biotransformation
N=C(N)NC(=O)Cc1c(Cl)cccc1Cl [GUANFACINE] | Compound NOT metabolized
O=C(CCCN1CCC2(CC1)C(=O)NCN2c1ccccc1)c1ccc(F)cc1 [SPIPERONE] | Compound NOT metabolized

experiment: The drug is tested on Enterobacter cancerogenus strain: ATCC35316 for biotransformation. The drug concentrations were measured before and after a 12-h incubation by liquid-chromatography-coupled mass spectrometry (LC–MS); conditions: 2 µM

SMILES | Bacterial Biotransformation
N=C(N)NC(=O)Cc1c(Cl)cccc1Cl [GUANFACINE] | Compound NOT metabolized
CNS(=O)(=O)Cc1ccc2[nH]cc(CCN(C)C)c2c1.O=C(O)CCC(=O)O [SUMATRIPTAN SUCCINATE] | Compound metabolized
O=C(CCCN1CCC2(CC1)C(=O)NCN2c1ccccc1)c1ccc(F)cc1 [SPIPERONE] | Compound NOT metabolized

experiment: The drug is tested on Clostridium sp. strain: fecal isolate for biotransformation. The drug concentrations were measured before and after a 12-h incubation by liquid-chromatography-coupled mass spectrometry (LC–MS); conditions: 2 µM

SMILES | Bacterial Biotransformation
CN1CC(=O)N2[C@H](c3ccc4c(c3)OCO4)c3[nH]c4ccccc4c3C[C@@H]2C1=O | Compound NOT metabolized
CNS(=O)(=O)Cc1ccc2[nH]cc(CCN(C)C)c2c1.O=C(O)CCC(=O)O [SUMATRIPTAN SUCCINATE] | Compound NOT metabolized
O=C(CCCN1CCC2(CC1)C(=O)NCN2c1ccccc1)c1ccc(F)cc1 [SPIPERONE] | Compound NOT metabolized

experiment: The drug is tested on Bacteroides finegoldii strain: DSM17565 for biotransformation. The drug concentrations were measured before and after a 12-h incubation by liquid-chromatography-coupled mass spectrometry (LC–MS); conditions: 2 µM

SMILES | Bacterial Biotransformation
N=C(N)NC(=O)Cc1c(Cl)cccc1Cl [GUANFACINE] | Compound NOT metabolized
CN1CC(=O)N2[C@H](c3ccc4c(c3)OCO4)c3[nH]c4ccccc4c3C[C@@H]2C1=O | Compound NOT metabolized
CNS(=O)(=O)Cc1ccc2[nH]cc(CCN(C)C)c2c1.O=C(O)CCC(=O)O [SUMATRIPTAN SUCCINATE] | Compound NOT metabolized
O=C(CCCN1CCC2(CC1)C(=O)NCN2c1ccccc1)c1ccc(F)cc1 [SPIPERONE] | Compound NOT metabolized

experiment: The drug is tested on Bacteroides ovatus strain: ATCC8483 for biotransformation. The drug concentrations were measured before and after a 12-h incubation by liquid-chromatography-coupled mass spectrometry (LC–MS); conditions: 2 µM

SMILES | Bacterial Biotransformation
N=C(N)NC(=O)Cc1c(Cl)cccc1Cl [GUANFACINE] | Compound NOT metabolized
CN1CC(=O)N2[C@H](c3ccc4c(c3)OCO4)c3[nH]c4ccccc4c3C[C@@H]2C1=O | Compound metabolized
O=C(CCCN1CCC2(CC1)C(=O)NCN2c1ccccc1)c1ccc(F)cc1 [SPIPERONE] | Compound NOT metabolized

conditions: bacteroides thetaiotaomicron, 12 h, 2 µM
Description: The drug is tested on Bacteroides thetaiotaomicron strain: 3731 for biotransformation. The drug concentrations were measured before and after a 12-h incubation by liquid-chromatography-coupled mass spectrometry (LC–MS)

SMILES | Bacterial Biotransformation
CN1CC(=O)N2[C@H](c3ccc4c(c3)OCO4)c3[nH]c4ccccc4c3C[C@@H]2C1=O | Compound metabolized
O=C(CCCN1CCC2(CC1)C(=O)NCN2c1ccccc1)c1ccc(F)cc1 [SPIPERONE] | Compound NOT metabolized

conditions: bacteroides thetaiotaomicron, 12 h, 2 µM; remark: another data set of the same source
Description: The drug is tested on Bacteroides thetaiotaomicron strain: VPI-5482 for biotransformation. The drug concentrations were measured before and after a 12-h incubation by liquid-chromatography-coupled mass spectrometry (LC–MS)

SMILES | Bacterial Biotransformation
N=C(N)NC(=O)Cc1c(Cl)cccc1Cl [GUANFACINE] | Compound NOT metabolized
CNS(=O)(=O)Cc1ccc2[nH]cc(CCN(C)C)c2c1.O=C(O)CCC(=O)O [SUMATRIPTAN SUCCINATE] | Compound metabolized
O=C(CCCN1CCC2(CC1)C(=O)NCN2c1ccccc1)c1ccc(F)cc1 [SPIPERONE] | Compound NOT metabolized

experiment: The drug is tested on Eubacterium hallii strain: DSM3353 for biotransformation. The drug concentrations were measured before and after a 12-h incubation by liquid-chromatography-coupled mass spectrometry (LC–MS); conditions: anaerobutyricum hallii, 2 µM

SMILES | Bacterial Biotransformation
N=C(N)NC(=O)Cc1c(Cl)cccc1Cl [GUANFACINE] | Compound NOT metabolized
CN1CC(=O)N2[C@H](c3ccc4c(c3)OCO4)c3[nH]c4ccccc4c3C[C@@H]2C1=O | Compound NOT metabolized
CNS(=O)(=O)Cc1ccc2[nH]cc(CCN(C)C)c2c1.O=C(O)CCC(=O)O [SUMATRIPTAN SUCCINATE] | Compound NOT metabolized
O=C(CCCN1CCC2(CC1)C(=O)NCN2c1ccccc1)c1ccc(F)cc1 [SPIPERONE] | Compound NOT metabolized

experiment: The drug is tested on Bifidobacterium breve strain: DSM20213 for biotransformation. The drug concentrations were measured before and after a 12-h incubation by liquid-chromatography-coupled mass spectrometry (LC–MS); conditions: 2 µM

SMILES | Bacterial Biotransformation
CN1CC(=O)N2[C@H](c3ccc4c(c3)OCO4)c3[nH]c4ccccc4c3C[C@@H]2C1=O | Compound NOT metabolized
CNS(=O)(=O)Cc1ccc2[nH]cc(CCN(C)C)c2c1.O=C(O)CCC(=O)O [SUMATRIPTAN SUCCINATE] | Compound NOT metabolized
O=C(CCCN1CCC2(CC1)C(=O)NCN2c1ccccc1)c1ccc(F)cc1 [SPIPERONE] | Compound NOT metabolized

experiment: The drug is tested on Clostridium symbiosum strain: ATCC14940 for biotransformation. The drug concentrations were measured before and after a 12-h incubation by liquid-chromatography-coupled mass spectrometry (LC–MS); conditions: 2 µM

SMILES | Bacterial Biotransformation
N=C(N)NC(=O)Cc1c(Cl)cccc1Cl [GUANFACINE] | Compound NOT metabolized
CN1CC(=O)N2[C@H](c3ccc4c(c3)OCO4)c3[nH]c4ccccc4c3C[C@@H]2C1=O | Compound NOT metabolized
CNS(=O)(=O)Cc1ccc2[nH]cc(CCN(C)C)c2c1.O=C(O)CCC(=O)O [SUMATRIPTAN SUCCINATE] | Compound NOT metabolized
O=C(CCCN1CCC2(CC1)C(=O)NCN2c1ccccc1)c1ccc(F)cc1 [SPIPERONE] | Compound NOT metabolized

experiment: The drug is tested on Clostridium scindens strain: ATCC35704 for biotransformation. The drug concentrations were measured before and after a 12-h incubation by liquid-chromatography-coupled mass spectrometry (LC–MS); conditions: 2 µM

SMILES | Bacterial Biotransformation
CN1CC(=O)N2[C@H](c3ccc4c(c3)OCO4)c3[nH]c4ccccc4c3C[C@@H]2C1=O | Compound NOT metabolized
CNS(=O)(=O)Cc1ccc2[nH]cc(CCN(C)C)c2c1.O=C(O)CCC(=O)O [SUMATRIPTAN SUCCINATE] | Compound NOT metabolized
O=C(CCCN1CCC2(CC1)C(=O)NCN2c1ccccc1)c1ccc(F)cc1 [SPIPERONE] | Compound NOT metabolized

conditions: bacteroides fragilis, 12 h, 2 µM; remark: another data set of the same source
Description: The drug is tested on Bacteroides fragilis strain: DS-208 for biotransformation. The drug concentrations were measured before and after a 12-h incubation by liquid-chromatography-coupled mass spectrometry (LC–MS)

SMILES | Bacterial Biotransformation
N=C(N)NC(=O)Cc1c(Cl)cccc1Cl [GUANFACINE] | Compound NOT metabolized
CNS(=O)(=O)Cc1ccc2[nH]cc(CCN(C)C)c2c1.O=C(O)CCC(=O)O [SUMATRIPTAN SUCCINATE] | Compound metabolized
O=C(CCCN1CCC2(CC1)C(=O)NCN2c1ccccc1)c1ccc(F)cc1 [SPIPERONE] | Compound NOT metabolized

experiment: The drug is tested on Bacteroides caccae strain: ATCC43185 for biotransformation. The drug concentrations were measured before and after a 12-h incubation by liquid-chromatography-coupled mass spectrometry (LC–MS); conditions: 2 µM

SMILES | Bacterial Biotransformation
N=C(N)NC(=O)Cc1c(Cl)cccc1Cl [GUANFACINE] | Compound NOT metabolized
CN1CC(=O)N2[C@H](c3ccc4c(c3)OCO4)c3[nH]c4ccccc4c3C[C@@H]2C1=O | Compound NOT metabolized
CNS(=O)(=O)Cc1ccc2[nH]cc(CCN(C)C)c2c1.O=C(O)CCC(=O)O [SUMATRIPTAN SUCCINATE] | Compound NOT metabolized
O=C(CCCN1CCC2(CC1)C(=O)NCN2c1ccccc1)c1ccc(F)cc1 [SPIPERONE] | Compound NOT metabolized

experiment: The drug is tested on Eubacterium rectale strain: ATCC33656 for biotransformation. The drug concentrations were measured before and after a 12-h incubation by liquid-chromatography-coupled mass spectrometry (LC–MS); conditions: agathobacter rectalis, 2 µM

SMILES | Bacterial Biotransformation
CN1CC(=O)N2[C@H](c3ccc4c(c3)OCO4)c3[nH]c4ccccc4c3C[C@@H]2C1=O | Compound NOT metabolized
CNS(=O)(=O)Cc1ccc2[nH]cc(CCN(C)C)c2c1.O=C(O)CCC(=O)O [SUMATRIPTAN SUCCINATE] | Compound NOT metabolized
